Source: patent US10022453B2 (BAYER PHARMA AKTIENGESELLSCHAFT, priority 2013, dated 2018)

Columns and labels:
NCI-H292 = assay: Cytotoxic effects, MTT assay; assay type: cell-based; conditions: Homo sapiens, 72 h incubation
Experimental: The cells are cultivated by a standard method, as indicated in the […] (ATCC) for the respective cell lines.
At the end of the selected incubation time, the MTT reagent is incubated with the cells for 4 h, followed by lysis of the cells overnight by addition of the detergent. […] The proliferation of cells which were not treated with test substance but were otherwise identically treated was defined as the 100% figure.

[1] = target: T1, human kinesin spindle protein KSP/Eg5 (Homo sapiens, UniProt P52732); assay: Inhibition of the kinesin spindle protein KSP/Eg5 (ATPase, malachite green); assay type: biochemical; conditions: 10 nM KSP motor domain, 500 μM ATP, 2 h RT
T1 construct: The motor domain of the human kinesin spindle protein KSP/Eg5; purchased tebu-bio/Cytoskeleton Inc 027EG01-XL
T1 sequence (P52732 18-359 limits assumed): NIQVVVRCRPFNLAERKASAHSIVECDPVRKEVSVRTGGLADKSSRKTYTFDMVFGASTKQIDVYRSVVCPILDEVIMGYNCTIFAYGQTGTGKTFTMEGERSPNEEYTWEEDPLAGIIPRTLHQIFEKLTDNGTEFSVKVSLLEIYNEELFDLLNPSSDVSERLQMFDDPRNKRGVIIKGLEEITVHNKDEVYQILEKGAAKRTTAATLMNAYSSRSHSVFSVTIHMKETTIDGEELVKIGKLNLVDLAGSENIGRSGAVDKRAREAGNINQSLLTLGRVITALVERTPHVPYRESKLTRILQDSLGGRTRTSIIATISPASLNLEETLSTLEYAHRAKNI
How it was run: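 KSP/Eg5 motor domain (10 nM) preincubated 5 min at RT with 50 μg/ml taxol-stabilized bovine or porcine microtubules in 15 mM PIPES pH 6.8, 5 mM MgCl2, 10 mM DTT. IC50 = mean of three experiments.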

[2] = Cell permeability, flux assay using Caco-2 cells; conditions: human, Caco-2

SMILES | IC50 (NCI-H292) [nM] | IC50 [1] [nM] | Papp B→A at 2 h [2] [×10⁻⁶ cm/s] | efflux ratio at 2 h [2]
CC(C)(C)[C@H](c1nc(-c2cc(F)ccc2F)cn1Cc1ccccc1)N(CCCN)C(=O)CSCCC(NC(=O)CCOCCOCCOCCOCCNC(=O)CCN1C(=O)CC(SC[C@H](N)C(=O)O)C1=O)C(=O)O.O=C(O)C(F)(F)F.O=C(O)C(F)(F)F (mixture of isomers) [Example 140, N-[19-(3(R/S)-[{(2R)-2-Amino-2-carboxyethyl]sulphanyl}-2,5-dioxopyrrolidin-1-yl)-17-oxo-4,7,10,13-tetraoxa-16-azanonadecan-1-oyl]-R/S-{2-[(3-aminopropyl){(1R)-1-[1-benzyl-4-(2,5-difluorophenyl)-1H-imidazol-2-yl]-2,2-dimethylpropyl}amino]-2-oxoethyl}homocysteine/trifluoroacetic acid (1:2)] | ≥ 500 | 2.51 | 0.17 | 1
CC(C)(C)[C@H](c1nn(-c2cc(F)ccc2F)cc1Cc1ccccc1)N(CCCN)C(=O)CO [Example 96, N-(3-Aminopropyl)-N-{(1R)-1-[4-benzyl-1-(2,5-difluorophenyl)-1H-pyrazol-3-yl]-2,2-dimethylpropyl}-2-hydroxyacetamide] | 2.09 | 7.8 | 28.5 | 16
CC(C)(C)[C@H](c1nc(-c2cc(F)ccc2F)cn1Cc1ccccc1)N(CC[C@H](N)C(=O)NCCC(=O)NCCN1C(=O)CC(SC[C@H](N)C(=O)O)C1=O)C(=O)CO.O=C(O)C(F)(F)F (stereo partly drawn) [Example 130, S-(1-{2-[(N-{(2S)-2-Amino-4-[{(1R)-1-[1-benzyl-4-(2,5-difluorophenyl)-1H-imidazol-2-yl]-2,2-dimethylpropyl}(glycoloyl)amino]butanoyl}-beta-alanyl)amino]ethyl}-2,5-dioxopyrrolidin-3-yl)-L-cysteine/trifluoroacetic acid (1:1)] | 178 | 1.66 | 1 | 6.7
CC(C)(C)[C@H](c1cc(-c2cc(F)ccc2F)cn1Cc1ccccc1)N(CC[C@H](N)C(=O)NCCC(=O)O)C(=O)CO [Example 200, N-{(2S)-2-Amino-4-[{(1R)-1-[1-benzyl-4-(2,5-difluorophenyl)-1H-pyrrol-2-yl]-2,2-dimethylpropyl}(glycoloyl)amino]butanoyl}-beta-alanine/trifluoroacetic acid (1:1)] | 140 | 0.108 |  | 
C[C@H](NC(=O)[C@@H](N)CCN(C(=O)CO)[C@@H](c1cc(-c2cc(F)ccc2F)cn1Cc1ccccc1)C(C)(C)C)C(=O)O [Example 202, N-{(2S)-2-Amino-4-{[(1R)-1-[1-benzyl-4-(2,5-difluorophenyl)-1H-pyrrol-2-yl]-2,2-dimethylpropyl}(glycoloyl)amino]butanoyl}-L-alanine/trifluoroacetic acid (1:1)] | 422 | 0.256 |  | 
Cc1ccc(C(=O)N(CCCN)[C@@H](c2cc(-c3cc(F)ccc3F)cn2Cc2ccccc2)C(C)(C)C)cc1 [Example 219, Trifluoroacetic acid/N-(3-aminopropyl)-N-{(1R)-1-[1-benzyl-4-(2,5-difluorophenyl)-1H-pyrrol-2-yl]-2,2-dimethylpropyl}-4-methylbenzamide (1:1)] | 3.48 | 1.13 |  | 
CSc1ccc(C(=O)N(CCCN)[C@@H](c2cc(-c3cc(F)ccc3F)cn2Cc2ccccc2)C(C)(C)C)cc1 [Example 220, Trifluoroacetic acid/N-(3-aminopropyl)-N-{(1R)-1-[1-benzyl-4-(2,5-difluorophenyl)-1H-pyrrol-2-yl]-2,2-dimethylpropyl}-4-(methylsulphanyl)benzamide (1:1)] | 0.197 | 1.45 |  | 
C[C@H](O)C(=O)N(CCCN)[C@@H](c1cc(-c2cc(F)ccc2F)cn1Cc1ccccc1)C(C)(C)C [Example 221, Trifluoroacetic acid/(2S)—N-(3-aminopropyl)-N-{(1R)-1-[1-benzyl-4-(2,5-difluorophenyl)-1H-pyrrol-2-yl]-2,2-dimethylpropyl}-2-hydroxypropanamide (1:1)] | 0.1 | 0.112 |  | 
CSCC(=O)N(CCCN)[C@@H](c1cc(-c2cc(F)ccc2F)cn1Cc1ccccc1)C(C)(C)C [Example 222, Trifluoroacetic acid/N-(3-aminopropyl)-N-{(1R)-1-[1-benzyl-4-(2,5-difluorophenyl)-1H-pyrrol-2-yl]-2,2-dimethylpropyl}-2-(methylsulphanyl)acetamide (1:1)] | 3.3 | 1.58 |  | 
C[C@H](O)C(=O)N(CCCN)[C@@H](c1nn(-c2cc(F)ccc2F)cc1Cc1ccccc1)C(C)(C)C [Example 223, Trifluoroacetic acid/(2S)—N-(3-aminopropyl)-N-{(1R)-1-[4-benzyl-1-(2,5-difluorophenyl)-1H-pyrazol-3-yl]-2,2-dimethylpropyl}-2-hydroxypropanamide (1:1)] | 0.0077 | 0.289 |  | 
COC(=O)CCC(=O)N(CCCN)[C@@H](c1cc(-c2cc(F)ccc2F)cn1Cc1ccccc1)C(C)(C)C [Example 224, Trifluoroacetic acid/methyl 4-[(3-aminopropyl){(1R)-1-[1-benzyl-4-(2,5-difluorophenyl)-1H-pyrrol-2-yl]-2,2-dimethylpropyl}amino]-4-oxobutanoate (1:1)] | 0.00337 | 0.196 |  | 
CC(C)(C)[C@H](c1cc(-c2cc(F)ccc2F)cn1Cc1ccccc1)N(CCCN)C(=O)CCC(=O)O [Example 225, 4-[(3-Aminopropyl) {(1R)-1-[1-benzyl-4-(2,5-difluorophenyl)-1H-pyrrol-2-yl]-2,2-dimethylpropyl}amino]-4-oxobutanoic acid/trifluoroacetic acid (1:1)] | 1.51 | 0.425 |  | 
CC(C)(C)[C@H](c1nn(-c2cc(F)ccc2F)cc1Cc1ccccc1)N(CCCN)C(=O)c1ccc(N)cc1 [Example 227, Trifluoroacetic acid/4-amino-N-(3-aminopropyl)-N-{(1R)-1-[4-benzyl-1-(2,5-difluorophenyl)-1H-pyrazol-3-yl]-2,2-dimethylpropyl}benzamide (2:1)] | 1.82 | 1.78 |  | 
CC(=O)N[C@@H](CSCC(=O)N(CCCN)[C@@H](c1cc(-c2cc(F)ccc2F)cn1Cc1ccccc1)C(C)(C)C)C(=O)O [Example 228, N-Acetyl-S-{2-[(3-aminopropyl){(1R)-1-[1-benzyl-4-(2,5-difluorophenyl)-1H-pyrrol-2-yl]-2,2-dimethylpropyl}amino]-2-oxoethyl}-L-cysteine/trifluoroacetic acid (1:1)] | 5.36 | 3.07 |  | 
CC(=O)N[C@@H](CSCC(=O)N(CCCNC(=O)[C@H](C)N)[C@@H](c1cc(-c2cc(F)ccc2F)cn1Cc1ccccc1)C(C)(C)C)C(=O)O [Example 229, N-acetyl-S-[2-([3-(L-alanylamino)propyl]{(1R)-1-[1-benzyl-4-(2,5-difluorophenyl)-1H-pyrrol-2-yl]-2,2-dimethylpropyl}amino)-2-oxoethyl]-L-cysteine/trifluoroacetic acid (1:1)] | ≥ 500 | 4.44 |  | 
CC(C)(C)[C@H](c1cc(-c2cc(F)ccc2F)cn1Cc1ccccc1)N(CCCN)C(=O)[C@@H]1CCCO1 [Example 230, Trifluoroacetic acid/(2S)—N-(3-aminopropyl)-N-{(1R)-1-[1-benzyl-4-(2,5-difluorophenyl)-1H-pyrrol-2-yl]-2,2-dimethylpropyl}tetrahydrofuran-2-carboxamide (1:1)] | 0.0121 | 3.41 |  | 
CC(C)(C)[C@H](c1cc(-c2cc(F)ccc2F)cn1Cc1ccccc1)N(CCCN)C(=O)CSCCC(=O)O [Example 231, 3-({2-[(3-Aminopropyl){(1R)-1-[1-benzyl-4-(2,5-difluorophenyl)-1H-pyrrol-2-yl]-2,2-dimethylpropyl}amino]-2-oxoethyl}sulphanyl)propanoic acid/trifluoroacetic acid (1:1)] | 0.918 | 1.67 |  | 
CC(C)(C)[C@H](c1cc(-c2cc(F)ccc2F)cn1Cc1ccccc1)N(CCCN)C(=O)c1ccc(N)cc1 [Example 233, Trifluoroactic acid/4-amino-N-(3-aminopropyl)-N-{(1R)-1-[1-benzyl-4-(2,5-difluorophenyl)-1H-pyrrol-2-yl]-2,2-dimethylpropyl}benzamide (2:1)] | 0.963 | 3.88 |  | 
CC(C)(C)[C@H](c1cc(-c2cc(F)ccc2F)cn1Cc1ccccc1)N(CC[C@H](N)C(=O)NCCCCCCN1C(=O)CC(SC[C@H](N)C(=O)O)C1=O)C(=O)CO (stereo partly drawn) [Example 249, S-{1-[6-({(2S)-2-Amino-4-[{(1R)-1-[1-benzyl-4-(2,5-difluorophenyl)-1H-pyrrol-2-yl]-2,2-dimethylpropyl}(glycoloyl)amino]butanoyl}amino)hexyl]-2,5-dioxopyrrolidin-3-yl}-L-cysteine/trifluoroacetic acid (1:1)] | 26.6 | 0.915 |  | 
